In patent US20180002288A1, “USE OF PICOLINAMIDES AS FUNGICIDES” (DOW AGROSCIENCES LLC, priority 2014, published 2018):
Where two headings read alike, the source gives them in different places.

Legend:
Zymoseptoria tritici = experiment: Leaf Blotch of Wheat fungicidal activity (SEPTTR); type: in vivo; conditions: for pest or weed control at 121.5 g/ha: Low Volume Cereal Activity at 121.5 g/Ha; for pest or weed control at 100 ppm: wheat, high volume
Puccinia triticina = experiment: Wheat Brown Rust fungicidal activity (PUCCRT); type: in vivo; conditions: for pest or weed control at 121.5 g/ha: Low Volume Cereal Activity at 121.5 g/Ha; for pest or weed control at 100 ppm: wheat, high volume
[1] = 24 h, 1 Day Protectant, read-out: SEPTTR 1DP (Wheat Leaf Blotch, 1 Day Protectant)
[2] = 72 h, 3 Day Curative, read-out: SEPTTR 3DC (Wheat Leaf Blotch, 3 Day Curative)
[3] = 24 h, 1 Day Protectant, read-out: PUCCRT 1DP (Wheat Brown Rust, 1 Day Protectant)
[4] = 72 h, 3 Day Curative, read-out: PUCCRT 3DC (Wheat Brown Rust, 3 Day Curative)
[5] = 24 h, 1 Day Protectant, read-out: SEPTTR 1DP % Control rating
[6] = 72 h, 3 Day Curative, read-out: SEPTTR 3DC % Control rating
[7] = 24 h, 1 Day Protectant, read-out: PUCCRT 1DP % Control rating
[8] = 72 h, 3 Day Curative, read-out: PUCCRT 3DC % Control rating

Row | Compound | pest or weed control at 121.5 g/ha (Zymoseptoria tritici; [1]) | pest or weed control at 121.5 g/ha (Zymoseptoria tritici; [2]) | pest or weed control at 121.5 g/ha (Puccinia triticina; [3]) | pest or weed control at 121.5 g/ha (Puccinia triticina; [4]) | pest or weed control at 100 ppm (Zymoseptoria tritici; [5]) | pest or weed control at 100 ppm (Zymoseptoria tritici; [6]) | pest or weed control at 100 ppm (Puccinia triticina; [7]) | pest or weed control at 100 ppm (Puccinia triticina; [8])
1 | COc1ccnc(C(=O)N[C@@H](Cc2ccccc2)C(=O)O[C@@H](C)[C@H](Oc2cccc(F)c2)c2ccccc2)c1OCOC(C)=O [Example 189] | < 80% | < 0% | > 80% | < 80% |  |  |  | 
2 | COc1ccnc(C(=O)N[C@@H](C)C(=O)O[C@@H](C)[C@H](Oc2ccccc2)c2ccc(F)cc2OCC2CC2)c1O [Example 175] |  |  |  |  | > 80% | < 80% | > 80% | > 80%
3 | COc1ccnc(C(=O)N[C@@H](C)C(=O)O[C@@H](C)[C@H](Oc2ccc(C(F)(F)F)cc2)c2ccccc2)c1OC(C)=O [Example 196] | > 80% | > 80% | > 80% | < 80% |  |  |  | 
4 | CCOc1cc(F)ccc1[C@@H](Oc1ccccc1)[C@H](C)OC(=O)[C@H](C)NC(=O)c1nccc(OC)c1O [Example 168] |  |  |  |  | > 80% | > 80% | > 80% | > 80%
5 | COc1ccnc(C(=O)N[C@@H](C)C(=O)O[C@@H](C)[C@@H](OCC(C)C)c2ccccc2)c1O [Example 136] |  |  |  |  | < 80% | < 0% | < 0% | < 80%
6 | COc1cc(F)ccc1[C@@H](OCC(F)F)[C@H](C)OC(=O)[C@H](C)NC(=O)c1nccc(OC)c1O [Example 288] |  |  |  |  | < 80% | > 80% | > 80% | > 80%
7 | COc1ccnc(C(=O)N[C@@H](Cc2ccccc2)C(=O)O[C@@H](C)[C@H](Oc2cccc(F)c2)c2ccccc2)c1O [Example 128] |  |  |  |  | < 0% | < 80% | > 80% | < 80%
8 | COc1ccnc(C(=O)N[C@@H](C)C(=O)O[C@@H](C)[C@H](Oc2cccc(F)c2)c2cccc(-c3ccccc3)c2)c1O [Example 133] |  |  |  |  | < 0% | < 0% | < 80% | < 0%
9 | COc1ccnc(C(=O)N[C@H](C(=O)O[C@@H](C)[C@H](Oc2ccc(C(F)(F)F)cc2)c2ccccc2)C(C)C)c1O [Example 126] |  |  |  |  | < 0% | < 80% | < 80% | < 0%
10 | COc1ccnc(C(=O)N[C@@H](C)C(=O)O[C@@H](C)[C@H](OCC2CC2)c2ccccc2)c1O [Example 113] |  |  |  |  | > 80% | > 80% | > 80% | < 80%
11 | COc1ccnc(C(=O)N[C@@H](C)C(=O)O[C@@H](C)[C@@H](OC)c2ccccc2)c1OC(C)=O [Example 229] | < 0% | < 80% | < 0% | > 80% |  |  |  | 
12 | COc1ccnc(C(=O)N[C@@H](C)C(=O)O[C@@H](C)[C@H](OCC2CC2)c2ccc(-c3ccccc3)cc2)c1OCOC(C)=O [Example 234] | > 80% | > 80% | > 80% | < 80% |  |  |  | 
13 | COc1cccc([C@@H](Oc2ccccc2)[C@H](C)OC(=O)[C@H](C)NC(=O)c2nccc(OC)c2OCOC(C)=O)c1 [Example 258] | > 80% | > 80% | > 80% | > 80% |  |  |  | 
14 | CCCO[C@@H](c1ccccc1)[C@H](C)OC(=O)[C@H](C)NC(=O)c1nccc(OC)c1OC(C)=O [Example 227] | < 80% | > 80% | > 80% | > 80% |  |  |  | 
